Where a name gives a salt, the structure may show the parent alone.
System: Bacteria mixture 1 (Pseudomonas genus)
Assay: Repetitive stress test of paints with bacteria mixture 1, semiquantitative evaluation (examples 2 and 3)
Format: cell-based
From the text: Paints 1 to 3 were mixed and homogenized with various concentrations of the guanidinium salts to be tested.
The batches obtained of the paint thus prepared were inoculated repeatedly with a mixture of different wild-type bacterial strains that are of practical relevance with regard to contamination. These bacteria had previously been isolated from commercial emulsion paints containing conventional preservatives (bacteria mixture 1, Pseudomonas genus), which are microbially contaminated in practice, and commercial so-called preservative-free alkaline emulsion paints (bacteria mixture 2, alkaliphilic bacteria of the Nesterenkonia & Alkalibacterium genus), which are microbially contaminated in practice.
• Pseudomonas spp. (Pseudomonas oleovorans group) DSM 33933 • Pseudomonas aeruginosa DSM 33935 • Pseudomonas oleovorans DSM 33936 • Pseudomonas putida DSM 33937 • Pseudomonas aeruginosa DSM 33938
The inoculum was added to the respective sample in each inoculation at 2% (v/w) as a fresh cell suspension in a physiological saline solution (0.9% NaCl). The cell count of the added inoculum in example 1 was 10^5/ml, in examples 2 to 5 10^9/ml, and in example 6 10^6/ml, each in equal portions consisting of the individual bacterial strains. The cell suspension was produced by growing the individual bacteria at 30° C. for 24 h in liquid culture on a shaker. The medium used to grow the bacteria from bacteria mixture 1 was Müller-Hinton liquid medium. Bacteria from bacteria mixture 2 were grown in Müller-Hinton liquid medium that had been adjusted to pH 9.5-9.7 with an alkaline buffer solution beforehand. After growing, the individual liquid cultures were centrifuged, and the cells were resuspended in physiological saline solution. In order to adjust the mixture to the desired cell count, the individual bacteria suspensions, if necessary, were diluted accordingly before being combined with saline solution. The cell count of the inoculum was determined in each case by chamber counting.
In examples 2 to 6, what is called a repetitive stress test with bacteria was conducted by inoculating the samples at particular time intervals repeatedly with a bacteria suspension having a cell count of 10^9/ml (2% v/w) and monitoring the evolution of the bacteria by a semiquantitative evaluation method. After each inoculation, the samples were incubated at 30° C. for 6 days (bacteria mixture 1 and 3) or 7 and 14 days (bacteria mixture 2), and after these periods bacterial infestation was evaluated semiquantitatively in each case. For this purpose, an aliquot was taken from each sample after homogenization using a sterile plastic inoculation loop (10 μl) and streaked evenly on agar plates (bacteria mixture 1 and 3 on tryptic soy agar, bacteria mixture 2 on DSMZ 31 alkaline nutrient agar). The streaked agar plates were then incubated at 30° C. for 48 h (bacteria mixture 1 and 3) or 5 to 7 days (bacteria mixture 2). After incubation, the bacterial colonies grown on the agar plates were visually evaluated and quantified according to the following scheme:
A total of 3 inoculation cycles was performed in each repetitive stress test.
Inoculation 2% (w/v) with Bacteria Mixture 1, 10^9 CFU/ml
2% (w/v) Inoculation with Bacteria Mixture 1, […]

Measured: Stabilization of the paint against microbial infestation

N=C(N)N [guanidine hydrochloride]
distinct stabilization: table 2, addition of 0.25% by weight to paint 1 having a pH of pH 8.5 | table 2, addition of 0.25% by weight to paint 2 having a pH of 9.0 | table 3, paint 1, pH of 7.5, addition of 0.8% by weight | table 3, paint 2, pH of pH 7.6, addition of 0.8% by weight

Source: US20260265538A1, “Aqueous Industrial Product Stabilized Against Microbial Contamination” (Thor GmbH, priority 2023, published 2026)
